Converted amounts (≈) assume the structure as drawn. “And” between values parts separate entries of the source, which are not always exact repeats. Equal entries are not always repeated.
Tests used:
E. coli strain 1709 = assay: Antibacterial activity against Escherichia coli
Description: (§3) The numerical values in the tables indicate MIC (mg/L), Res means resistant bacterium, and Sus means susceptible bacterium.
(§4) Antibacterial activities against Escherichia coli of the compounds shown Table 19 were examined by the following method.
(§5) After completion of the culture, the cells were suspended in fresh TBS to prepare a cell suspension showing an absorbance of 0.3 at 578 nm.

GyrA (wt) + GyrB (wt) = molecular target: T1, GyrA (wt) + GyrB (wt) (Staphylococcus aureus, UniProt P20831); assay: DNA cleavage assay using DNA gyrase; format: biochemical; conditions: for Ratio of cleaved DNA (%) / Ratio of substrate plasmid DNA (%): GyrA (wt) + GyrB (wt)
T1 construct: made in house; host or cells: E. coli BL21(DE3)
Protocol: (§1) To the culture medium of the resulting transformed Escherichia coli 1 mM isopropyl-8-thiogalactopyranoside (produced by Wako Pure Chemical Industries) was added to induce expression of maltose-binding GyrA(wt), maltose-binding GyrB(wt), or maltose-binding mutant GyrA(S84L), and the bacterium was cultured overnight at 25° C.
Then, each disrupted cell suspension was added to a column filled with an amylose resin covalently bound with maltose (produced by Novagen). A buffer (20 mM Tris-HCl (pH 8.0), 200 mM sodium chloride, 1 mM EDTA) containing 10 mM maltose was added to the column to elute the maltose-binding GyrA(wt), maltose-binding GyrB(wt), and maltose-binding mutant GyrA(S84L).
To each eluate, 4 units/1 mL of the eluate of protease (Factor Xa, produced by Amersham) was added, and the mixture was left standing at 25° C. for 3 hours and 30 minutes to cleave the maltose-binding proteins, GyrA(wt), GyrB(wt), and mutant GyrA(S84L), from the maltose-binding GyrA(wt), maltose-binding GyrB(wt), and maltose-binding mutant GyrA(S84L).
Then, GyrA(wt), GyrB(wt), and mutant GyrA(S84L) were concentrated by using an ultrafiltration unit (YM-50 Filter Unit, produced by Millipore).
The concentrated GyrA(wt), GyrB(wt), and mutant GyrA(S84L) were each suspended in a buffer (35 mM Tris-HCl (pH 7.5), 24 mM potassium chloride, 6 mM magnesium chloride, 1.8 mM spermidine, 0.36 mg/mL bovine serum albumin, 5 mM DTT, 50 volume % glycerol) at a concentration of 1 μg/μL for GyrA(wt), 2 μg/μL for GyrB(wt), or 1 μg/μL for mutant GyrA(S84L).
Levofloxacin was added at a final concentration of […] as control for an index of the enzymatic activity.
The reaction solution was left standing at 25° C. for 30 minutes to allow the reaction. Subsequently, a 6 mass % solution of sodium laurylsulfate (2 μL) and a 5 mg/mL solution of Proteinase K (2 μL, produced by Wako Pure Chemical Industries) were added to the reaction solution, and the mixture was left standing at 37° C. for 30 minutes to inactivate GyrA(wt) and GyrB(wt) bound to DNA.
Then, the whole volume of the reaction solution treated with Proteinase K was subjected to electrophoresis on 1 mass % agarose gel to visualize the resultants of the reaction.
(§2) Then, the total value of the intensities of the bands of “S”, “L”, and “N” was calculated for each concentration, and the result was used as “total DNA amount” (equation 1 mentioned below). Further, the total value of the intensities of the bands of “L” and “N” was also calculated, and the result was used as “amount of cleaved DNA” (equation 2 mentioned below). Then, the ratio (%) of the amount of the substrate plasmid DNA to the total DNA amount was calculated in accordance with the following equation 3, and the ratio (%) of the amount of the cleaved DNA to the total DNA amount was calculated in accordance with the following equation 4.
The DNA cleavage assay is a method for evaluating an inhibitory action of an agent for DNA gyrase by detecting whether or not DNAs cleaved by DNA gyrase are recombined.

GyrA (S84L) + GyrB (wt) = molecular target: T2, GyrA (S84L) + GyrB (wt) (Staphylococcus aureus, UniProt P20831, S84L); assay: DNA cleavage assay using DNA gyrase; format: biochemical
T2 construct: made in house; host or cells: E. coli BL21(DE3)
Protocol: as §1
Then, each disrupted cell suspension was added to a column filled with an amylose resin covalently bound with maltose (produced by Novagen). A buffer (20 mM Tris-HCl (pH 8.0), 200 mM sodium chloride, 1 mM EDTA) containing 10 mM maltose was added to the column to elute the maltose-binding GyrA(wt), maltose-binding GyrB(wt), and maltose-binding mutant GyrA(S84L). […]
as §2

[1] = test system: E. coli strain 1709 plus PABN; assay: Antibacterial activity against Escherichia coli in combination with efflux pump inhibitor PAβN; conditions: E coli plus PABN 40 mg/L, strain 1709, Quinolone Sus
Description: as §3, §4, §5

E. coli strain 1708 = assay: Antibacterial activity against Escherichia coli
Description: as §3, §4, §5

[2] = test system: E. coli strain 1708 plus PABN; assay: Antibacterial activity against Escherichia coli in combination with efflux pump inhibitor PAβN; conditions: E coli plus PABN 40 mg/L, strain 1708, Quinolone Res
Description: as §3, §4, §5

Question: With `O=c1cc(CO)c2cc(F)c(-c3ccc(O)cc3)cc2n1C1CC1` [J-131CP, 1-cyclopropyl-6-fluoro-4-(hydroxymethyl)-7-(4-hydroxyphenyl)-1,2-dihydroquinolin-2-one] as the compound, how does the MIC (E. coli strain 1709) read?
Answer: The MIC was 8 µg/mL (≈ 24.6 µM).

Question: What about the “Ratio of cleaved DNA (%)” value (GyrA (wt) + GyrB (wt); concentration 0.125 μg/mL) of the same compound?
Answer: The value was 12%.

Question: And the “Ratio of substrate plasmid DNA (%)” value (GyrA (wt) + GyrB (wt); concentration 0.125 μg/mL)?
Answer: The value was 88%.

Question: What about the “Ratio of cleaved DNA (%)” value (GyrA (wt) + GyrB (wt); concentration 0.25 μg/mL) of the same compound?
Answer: Its value is 19%.

Question: And the “Ratio of substrate plasmid DNA (%)” value (GyrA (wt) + GyrB (wt); concentration 0.25 μg/mL)?
Answer: Its value is 81%.

Question: What about the “Ratio of cleaved DNA (%)” value (GyrA (wt) + GyrB (wt); concentration 0.5 μg/mL) of the same compound?
Answer: The value was 23%.

Question: What about the “Ratio of substrate plasmid DNA (%)” value (GyrA (wt) + GyrB (wt); concentration 0.5 μg/mL) of the same compound?
Answer: Its value is 77%.

Question: And the “Ratio of cleaved DNA (%)” value (GyrA (wt) + GyrB (wt); concentration 1 μg/mL)?
Answer: Its value is 47%.

Question: And the “Ratio of substrate plasmid DNA (%)” value (GyrA (wt) + GyrB (wt); concentration 1 μg/mL)?
Answer: Its value is 53%.

Question: What about the “Ratio of cleaved DNA (%)” value (GyrA (wt) + GyrB (wt); concentration 2 μg/mL) of the same compound?
Answer: Its value is 77%.

Question: What about the “Ratio of substrate plasmid DNA (%)” value (GyrA (wt) + GyrB (wt); concentration 2 μg/mL) of the same compound?
Answer: The value was 23%.

Question: And the “Ratio of cleaved DNA (%)” value (GyrA (wt) + GyrB (wt); concentration 4 μg/mL)?
Answer: The value was 81%.

Question: And the “Ratio of substrate plasmid DNA (%)” value (GyrA (wt) + GyrB (wt); concentration 4 μg/mL)?
Answer: The value was 19%.

Question: What about the IC50 (GyrA (wt) + GyrB (wt); IC50, GyrA(wt) and GyrB(wt)) of the same compound?
Answer: The IC50 was 6.15 µM and 6.2 µM.

Question: What about the IC50 (GyrA (S84L) + GyrB (wt); IC50, GyrA (S84L) + GyrB (wt), calculated from the ratio of cleaved DNA) of the same compound?
Answer: The IC50 was 3.07 µM.

Question: What about the IC50 (GyrA (S84L) + GyrB (wt); IC50, GyrA(S84L) and GyrB(wt)) of the same compound?
Answer: Its IC50 is 3.1 µM.

Question: What about the MIC [1] of the same compound?
Answer: Its MIC is “≦0.06 mg/L”.

Question: And the MIC (E. coli strain 1708)?
Answer: Its MIC is 128 µg/mL (≈ 393 µM).

Question: What about the MIC [2] of the same compound?
Answer: The MIC was 0.25 µg/mL.

Question: With `C[C@H]1COc2c(N3CCN(C)CC3)c(F)cc3c(=O)c(C(=O)O)cn1c23` [LVX, levofloxacin] as the compound, how does the “Ratio of cleaved DNA (%)” value (GyrA (wt) + GyrB (wt); concentration 16 μg/mL) read?
Answer: Its value is 78%.

Question: And the “Ratio of substrate plasmid DNA (%)” value (GyrA (wt) + GyrB (wt); concentration 16 μg/mL)?
Answer: The value was 22%.

Reference: patent US20160257651A1, “NOVEL COMPOUND WITH ANTIBACTERIAL ACTIVITY” (priority 2013, published 2016)
